In paper PMC7520419 (The AAPS Journal, 2020):
Values after ≈ are worked out from the molar mass of the structure shown. Structures can show the parent of a compound that is named as a salt. Where two headings read alike, the source gives them in different places.

Legend:
pKa = pKa (b, basic)
[1] = cited from earlier work; for Observed AUC(0-inf) Fasted / Observed AUC(0-inf) Fed / Observed Cmax Fed / Observed Cmax Fasted: ref published clinical data (Table I); for food effect (FE) direction: ref drug label; for Food Effect: compiled by literature search
[2] = Solubility measurement in biorelevant media (FaSSIF-V2, FeSSIF-V2); conditions: 37 °C, thermodynamic from solid
[3] = clinically observed PK change (AUC, Cmax) fed vs fasted

Question: For `CCc1cc2c(cc1N1CCC(N3CCOCC3)CC1)C(C)(C)c1[nH]c3cc(C#N)ccc3c1C2=O` [Alectinib], which pKa (pKa) is on record?
Answer: 7.05

Question: What about the “Observed AUC(0-inf) Fasted” value ([1]; Model 1) of the same compound?
Answer: 1790 ng·h/mL

Question: What about the “Observed AUC(0-inf) Fed” value ([1]; Model 1) of the same compound?
Answer: 5230 ng·h/mL

Question: What about the “Observed Cmax Fed” value ([1]; Model 1) of the same compound?
Answer: 257 ng/mL

Question: And the “Observed AUC(0-inf) Fasted” value ([1]; Model 2)?
Answer: 1790 ng·h/mL

Question: And the “Observed AUC(0-inf) Fed” value ([1]; Model 2)?
Answer: 5230 ng·h/mL

Question: What about the “Observed Cmax Fed” value ([1]; Model 2) of the same compound?
Answer: 257 ng/mL

Question: And the solubility ([2]; FaSSIF-V2 (fasted state simulated intestinal fluid), FaSSIF solubility)?
Answer: 23 µg/mL (≈ 47.7 µM)

Question: What about the solubility ([2]; FeSSIF-V2 (fed state simulated intestinal fluid), FeSSIF solubility) of the same compound?
Answer: 77 µg/mL (≈ 160 µM)

Question: Which results are given for `CNCCC(Oc1ccc(C(F)(F)F)cc1)c1ccccc1` (stereo not shown) [Fluoxetine HCl]?
Answer: pKa (pKa): 9.8; Observed AUC(0-inf) Fasted ([1]; Model 1): 1930 ng·h/mL; Observed Cmax Fasted ([1]; Model 1): 39.3 ng/mL; Observed AUC(0-inf) Fed ([1]; Model 1): 1340 ng·h/mL; Observed Cmax Fed ([1]; Model 1): 35.7 ng/mL; Observed AUC(0-inf) Fasted ([1]; Model 2): 1930 ng·h/mL; Observed Cmax Fasted ([1]; Model 2): 39.3 ng/mL; Observed AUC(0-inf) Fed ([1]; Model 2): 1340 ng·h/mL; Observed Cmax Fed ([1]; Model 2): 35.7 ng/mL; food effect (FE) direction [1]: no FE

Question: For `Cc1cn([C@H]2C[C@H](N=[N+]=[N-])[C@@H](CO)O2)c(=O)[nH]c1=O` [Zidovudine], which pKa (pKa) is on record?
Answer: 9.7

Question: And the “Observed AUC(0-inf) Fasted” value ([1]; Model 1)?
Answer: 2480 ng·h/mL

Question: And the “Observed Cmax Fasted” value ([1]; Model 1)?
Answer: 1130 ng/mL

Question: What about the “Observed AUC(0-inf) Fed” value ([1]; Model 1) of the same compound?
Answer: 2170 ng·h/mL

Question: And the “Observed Cmax Fed” value ([1]; Model 1)?
Answer: 632 ng/mL

Question: And the “Food Effect” value [1, 3]?
Answer: Negative (negative if ratio fasted > fed)

Question: And the “food effect (FE) direction” value [1]?
Answer: negative FE

Question: For `O=C1Cc2cc(CCN3CCN(c4nsc5ccccc45)CC3)c(Cl)cc2N1` [Ziprasidone hydrochloride], which “Food Effect” value [1, 3] is on record?
Answer: Positive (positive if the ratio of fed > fasted)

Question: Which “Food Effect” value [1, 3] does the source give for `Cc1onc(-c2ccccc2)c1-c1ccc(S(N)(=O)=O)cc1` [Valdecoxib] here?
Answer: None (none if no significant change in AUC and Cmax with food)

Question: For `CCCS(=O)(=O)Nc1ccc(F)c(C(=O)c2c[nH]c3ncc(-c4ccc(Cl)cc4)cc23)c1F` [Vemurafenib], which “Food Effect” value [1, 3] is on record?
Answer: Positive (positive if the ratio of fed > fasted)

Question: Which “Food Effect” value [1, 3] does the source give for `Cc1c(C(=O)Nc2ccc(N3C[C@@H](C)O[C@@H](C)C3)nc2)cccc1-c1ccc(OC(F)(F)F)cc1` [Sonidegib] here?
Answer: Positive (positive if the ratio of fed > fasted)

Question: Which results are given for `COC(=O)[C@H](c1ccccc1Cl)N1CCc2sccc2C1` [Clopidogrel bisulfate]?
Answer: Food Effect ([1]; active metabolite measured, fed vs fasted): None (none if no significant change in AUC and Cmax with food); Food Effect ([1]; prodrug measured, fed vs fasted): Positive (positive if the ratio of fed > fasted)

Question: For `C#C[C@]1(O)CC[C@H]2[C@@H]3CCc4cc(O)ccc4[C@H]3CC[C@@]21C` [Ethinyl estradiol], which “Food Effect” value [1, 3] is on record?
Answer: None (none if no significant change in AUC and Cmax with food)

Question: Which “Food Effect” value [1, 3] does the source give for `CNCCC(Oc1ccc(C(F)(F)F)cc1)c1ccccc1` (stereo not shown) [Fluoxetine hydrochloride] here?
Answer: None (none if no significant change in AUC and Cmax with food)

Question: With `COc1cccc(CCc2ccccc2OCC(CN(C)C)OC(=O)CCC(=O)O)c1` (stereo not shown) [Sarpogrelate] as the compound, how does the “Food Effect” value [1, 3] read?
Answer: Negative (negative if ratio fasted > fed)

Question: For `CC(C)c1nc(CN(C)C(=O)N[C@H](C(=O)N[C@@H](Cc2ccccc2)C[C@H](O)[C@H](Cc2ccccc2)NC(=O)OCc2cncs2)C(C)C)cs1` [Ritonavir], which “Food Effect” value [1, 3] is on record?
Answer: None (none if no significant change in AUC and Cmax with food)

Question: Which “Food Effect” value [1, 3] does the source give for `CSc1nc2cc(Cl)c(Oc3cccc(Cl)c3Cl)cc2[nH]1` [Triclabendazole] here?
Answer: Positive (positive if the ratio of fed > fasted)

Question: For `Cc1c(C)c2c(c(C)c1O)CCC(C)(COc1ccc(CC3SC(=O)NC3=O)cc1)O2` (stereo not shown) [Troglitazone], which “Food Effect” value [1, 3] is on record?
Answer: Positive (positive if the ratio of fed > fasted)

Question: For `CCOC(=O)C1=C[C@@H](OC(CC)CC)[C@H](NC(C)=O)[C@@H](N)C1` [Oseltamavir], which “Food Effect” value [1, 3] is on record?
Answer: None (none if no significant change in AUC and Cmax with food)

Question: Which “Food Effect” value [1, 3] does the source give for `C#Cc1cccc(Nc2ncnc3cc(OCCOC)c(OCCOC)cc23)c1` [Erlotinib] here?
Answer: Positive (positive if the ratio of fed > fasted)
